Columns and labels:
BCL-XL = BCL-XL (Homo sapiens (Human), UniProt Q07817); test: 1D 1H-NMR binding assay; settings: 4-point-rating scale; compounds 200 μM, BCL-XL 25 μM; note: key: +++: Very Active; ++: Active; +: Mild; −: Weak
Description: By observing the aliphatic region of the spectra, binding could be readily detected due to chemical shift changes in active site methyl groups of Ile, Leu, Thr, Val or Ala (region between −0.8 and 0.3 ppm). All experiments were performed with a 600 MHz spectrometer Bruker Avance 600 equipped with four rf channels and z-axis pulse-field gradients.

Plasma stability = type: in vitro ADME, rat; settings: rat plasma, 1 h, 37.5° C.
Description: A 20 μL aliquot of a 10 mM solution in DMSO of the test compound was added to […] of heparinized rat plasma (Lampire, P1-150N) to obtain a 100 μM final solution. The mixture was incubated for 1 h at 37.5° C. Aliquots of 100 μL were taken (0, 30 min, 1 h) and diluted with 200 μL of MeOH containing internal standard.

[1] = Liver microsomal stability; settings: for Microsomal Stability (T = 1 hr): rat liver microsomes, 4 μM, 60 min; for microsomal stability compared to apogossypol: rat microsomal preparations
Description: Pooled rat liver microsomes (BD Biosciences, #452701) were preincubated with test compounds at 37.5° C. for 5 min in the absence of NADPH. The reaction was initiated by addition of NADPH and then incubated under the same conditions. […] One aliquot (100 μL) of the incubation mixture was withdrawn at 0, 15, 30, and 60 min and combined immediately with 200 μL of ACN/MeOH containing an internal standard. After mixing, the sample was centrifuged at approximately 13,000 rpm for 12 min. The supernatant was transferred into an autosampler vial and the amount of test compound was quantified using the Shimadzu LCMS 2010EV mass spectrometer. The change of the AUC (area under the curve) of the parent compound as function of time was used as a measure of microsomal stability.

[2] = PAMPA (parallel artificial membrane permeation assay); settings: PAMPA, pH 7.2, 8 h
Description: PAMPA is parallel artificial membrane permeation assay. A 96-well microtiter plate (Millipore, # MSSACCEPTOR) was completely filled with aqueous buffer solution (pH 7.2) and covered with a microtiter filterplate (Millipore, # MAPBMN310). The hydrophobic filter material was impregnated with a 10% solution of hexadecane in hexane and the organic solvent was allowed to completely evaporate. Permeation studies were started by the transfer of 200 μL of a 100 μM test compound solution on top of the filterplate. In general phosphate buffer at pH 7.2 buffer was used. The maximum DMSO content of the stock solutions was <5%. In parallel, an equilibrium solution lacking a membrane was prepared using the exact concentrations and specifications but lacking the membrane. The concentrations of the acceptor and equilibrium solutions were determined using the Shimadzu LCMS-2010EV and AUC methods. The permeation of a compound through the membrane layer is described by the percentage permeation (% flux). The flux values were calculated considering the concentration of the acceptor compartment after 8 h and that of a reference well with the same concentration containing no membrane barrier.

Chain of BCL-XL (Q07817 whole entry): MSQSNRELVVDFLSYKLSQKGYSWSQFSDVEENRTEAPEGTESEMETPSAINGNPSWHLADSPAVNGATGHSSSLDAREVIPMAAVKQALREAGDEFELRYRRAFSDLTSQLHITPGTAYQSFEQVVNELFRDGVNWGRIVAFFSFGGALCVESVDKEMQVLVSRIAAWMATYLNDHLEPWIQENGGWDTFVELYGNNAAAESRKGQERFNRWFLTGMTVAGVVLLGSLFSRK

Compound: Cc1cc2cc(O)c(O)cc2c(O)c1-c1c(C)cc2cc(O)c(O)cc2c1O [Compound II, 3,3′-dimethyl-2,2′-binaphthyl-1,1′,6,6′,7,7′-hexaol]
- 1D 1H-NMR Binding Assay (BCL-XL) (BCL-XL): +

Compound: Cc1cc2c(C(=O)C(C)C)c(O)c(O)cc2c(O)c1-c1c(C)cc2c(C(=O)C(C)C)c(O)c(O)cc2c1O [Compound III, 1,1′-(1,1′6,6′,7,7′-hexahydroxy-3,3′-dimethyl-2,2′-binaphthyl-5,5′-diyl)bis(2-methylpropan-1-one)]
- 1D 1H-NMR Binding Assay (BCL-XL) (BCL-XL): ++

Compound: Cc1cc2c(C(=O)c3ccc(-c4ccccc4)cc3)c(O)c(O)cc2c(O)c1-c1c(C)cc2c(C(=O)c3ccc(-c4ccccc4)cc3)c(O)c(O)cc2c1O [Compound IX, (1,1′,6,6′,7,7′-hexahydroxy-3,3′-dimethyl-2,2′-binaphthyl-5,51-diyl)bis(biphenyl-4-ylmethanone)]
- 1D 1H-NMR Binding Assay (BCL-XL) (BCL-XL): −

Compound: CCCCC(CC)CC(=O)c1c(O)c(O)cc2c(O)c(-c3c(C)cc4c(C(=O)CC(CC)CCCC)c(O)c(O)cc4c3O)c(C)cc12 (stereo not shown) [Compound V, 1,1′-(1,1′,6,6′,7,7′-hexahydroxy-3,3′-dimethyl-2,2′-binaphthyl-5,5′-diyl)bis(3-ethylheptan-1-one)]
- 1D 1H-NMR Binding Assay (BCL-XL) (BCL-XL): +

Compound: Cc1cc2c(C(=O)C3CCCC3)c(O)c(O)cc2c(O)c1-c1c(C)cc2c(C(=O)C3CCCC3)c(O)c(O)cc2c1O [Compound VI, (1,1′,6,6′,7,7′-hexahydroxy-3,3′-dimethyl-2,2′-binaphthyl-5,5′-diyl)bis(cyclopentylmethanone)]
- 1D 1H-NMR Binding Assay (BCL-XL) (BCL-XL): +
- Plasma Stability (T = 1 hr) (Plasma stability): 79%
- Microsomal Stability (T = 1 hr) [1]: 27%
- microsomal stability compared to apogossypol [1]: degraded faster than apogossypol
- Cell Permeability [2]: Low

Compound: Cc1cc2c(C(=O)c3ccc(C(C)(C)C)cc3)c(O)c(O)cc2c(O)c1-c1c(C)cc2c(C(=O)c3ccc(C(C)(C)C)cc3)c(O)c(O)cc2c1O [Compound X, (1,1′,6,6′,7,7′-hexahydroxy-3,3′-dimethyl-2,2′-binaphthyl-5,5′-diyl)bis((4-tert-butylphenyl)methanone)]
- 1D 1H-NMR Binding Assay (BCL-XL) (BCL-XL): −

Compound: Cc1cc2c(C(=O)Cc3cccc(Br)c3)c(O)c(O)cc2c(O)c1-c1c(C)cc2c(C(=O)Cc3cccc(Br)c3)c(O)c(O)cc2c1O [Compound XIII, 1,1′-(1,1′,6,6′,7,7′-hexahydroxy-3,3′-dimethyl-2,2′-binaphthyl-5,5′-diyl)bis(2-(3-bromophenyl)ethanone)]
- 1D 1H-NMR Binding Assay (BCL-XL) (BCL-XL): ++

Compound: Cc1cc2c(C(=O)CC3CCCCC3)c(O)c(O)cc2c(O)c1-c1c(C)cc2c(C(=O)CC3CCCCC3)c(O)c(O)cc2c1O [Compound XV, 1,1′-(1,1′,6,6′,7,7′-hexahydroxy-3,3′-dimethyl-2,2′-binaphthyl-5,5′-diyl)bis(2-cyclohexylethanone)]
- 1D 1H-NMR Binding Assay (BCL-XL) (BCL-XL): ++

Compound: Cc1cc2c(C(=O)CCc3ccc(F)cc3)c(O)c(O)cc2c(O)c1-c1c(C)cc2c(C(=O)CCc3ccc(F)cc3)c(O)c(O)cc2c1O [Compound XVI, 1,1′-(1,1′,6,6′,7,7′-hexahydroxy-3,3′-dimethyl-2,2′-binaphthyl-5,5′-diyl)bis(3-(4-fluorophenyl)propan-1-one)]
- 1D 1H-NMR Binding Assay (BCL-XL) (BCL-XL): +

Compound: Cc1cc2c(C(=O)C(C)(C)C)c(O)c(O)cc2c(O)c1-c1c(C)cc2c(C(=O)C(C)(C)C)c(O)c(O)cc2c1O [Compound XVIII, 1,1′-(1,1′,6,6′,7,7′-hexahydroxy-3,3′-dimethyl-2,2′-binaphthyl-5,5′-diyl)bis(2,2-dimethylpropan-1-one)]
- 1D 1H-NMR Binding Assay (BCL-XL) (BCL-XL): ++
- Plasma Stability (T = 1 hr) (Plasma stability): 90%
- Microsomal Stability (T = 1 hr) [1]: 30%
- microsomal stability compared to apogossypol [1]: degraded faster than apogossypol
- Cell Permeability [2]: Medium

Compound: CCCCC(=O)c1c(O)c(O)cc2c(O)c(-c3c(C)cc4c(C(=O)CCCC)c(O)c(O)cc4c3O)c(C)cc12 [Compound XX, 1,1′-(1,1′,6,6′,7,7′-hexahydroxy-3,3′-dimethyl-2,2′-binaphthyl-5,5′-diyl)dipentan-1-one]
- 1D 1H-NMR Binding Assay (BCL-XL) (BCL-XL): +

From patent US9115061B2, “Naphthalene-based inhibitors of anti-apoptotic proteins” (BURNHAM INSTITUTE FOR MEDICAL RESEARCH, priority 2007, dated 2015)
